Assay results taken from PubChem BioAssay AID328 (DTP/NCI, 2004).
Inconclusive results and toxic doses are left out.

Tested on: BDF1 mice, P388 leukemia ip, median survival T/C
Assay: NCI In Vivo Anticancer Drug Screen. Data for tumor model P388 Leukemia (intraperitoneal) in B6D2F1 (BDF1) mice
Conditions: endpoint: median survival time, higher = longer survival
Outline: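 Antitumour effect was judged in vivo: survival in drug-treated mice, normalised to that of vehicle-dosed controls, gives the reported T/C.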

[1] = dose: 100.0 mg/kg/injection, schedule: Q04DX003 (ip), vehicle: Klucel (hydroxypropylcellulose) (HPC)

SMILES: Cc1cc2c(c3oc(C4(C)OC4C4OC4C)cc(=O)c13)C(=O)c1c(O)c(C3CC(C)(N(C)C)C(O)C(C)O3)cc(C3CC(N(C)C)C(O)C(C)O3)c1C2=O (centres undefined)
- T/C (dose: 0.01 mg/kg/injection, schedule: Q01DX009 (oral), vehicle: saline): 105 % of control
- T/C (dose: 0.03 mg/kg/injection, schedule: Q01DX009 (oral), vehicle: saline): 105 % of control
- T/C (dose: 0.06 mg/kg/injection, schedule: Q01DX001 (oral), vehicle: saline): 95 % of control
- T/C (dose: 0.06 mg/kg/injection, schedule: Q01DX009 (oral), vehicle: saline): 110 % of control
- T/C (dose: 0.06 mg/kg/injection, schedule: Q01DX010 (ip), vehicle: saline): 109 % of control
- T/C (dose: 0.12 mg/kg/injection, schedule: Q01DX001 (ip), vehicle: saline): 155 % of control
- T/C (dose: 0.12 mg/kg/injection, schedule: Q01DX001 (oral), vehicle: saline): 104 % of control
- T/C (dose: 0.12 mg/kg/injection, schedule: Q01DX009 (oral), vehicle: saline): 110 % of control
- T/C (dose: 0.24 mg/kg/injection, schedule: Q01DX001 (ip), vehicle: saline): 190 % of control
- T/C (dose: 0.24 mg/kg/injection, schedule: Q01DX001 (oral), vehicle: saline): 104 % of control
- T/C (dose: 0.48 mg/kg/injection, schedule: Q01DX001 (ip), vehicle: saline): 200 % of control
- T/C (dose: 0.48 mg/kg/injection, schedule: Q01DX001 (oral), vehicle: saline): 100 % of control
- T/C (dose: 0.1 micrograms/kg/injection, schedule: Q01DX010 (ip), vehicle: carboxymethylcellulose (CMC)): 95 % of control
- T/C (dose: 0.1 micrograms/kg/injection, schedule: Q01DX010 (ip), vehicle: other): 113 % of control
- T/C (dose: 0.2 micrograms/kg/injection, schedule: Q01DX010 (ip), vehicle: carboxymethylcellulose (CMC)): 95 % of control
- T/C (dose: 0.2 micrograms/kg/injection, schedule: Q01DX010 (ip), vehicle: other): 118 % of control
- T/C (dose: 0.3 micrograms/kg/injection, schedule: Q01DX010 (ip), vehicle: saline): 100 % of control
- T/C (dose: 0.3 micrograms/kg/injection, schedule: Q01DX010 (ip), vehicle: steriod suspending solution): 95 % of control
- T/C (dose: 0.5 micrograms/kg/injection, schedule: Q01DX010 (ip), vehicle: carboxymethylcellulose (CMC)): 104 % of control
- T/C (dose: 0.5 micrograms/kg/injection, schedule: Q01DX010 (ip), vehicle: other): 109 % of control
- T/C (dose: 0.5 micrograms/kg/injection, schedule: Q01DX010 (ip), vehicle: saline): 116 % of control
- T/C (dose: 0.6 micrograms/kg/injection, schedule: Q01DX010 (ip), vehicle: saline): 95 % of control
- T/C (dose: 0.6 micrograms/kg/injection, schedule: Q01DX010 (ip), vehicle: steriod suspending solution): 120 % of control
- T/C (dose: 1.0 micrograms/kg/injection, schedule: Q01DX010 (ip), vehicle: other): 109 % of control
- T/C (dose: 1.0 micrograms/kg/injection, schedule: Q01DX010 (ip), vehicle: saline): 120 % of control
- T/C (dose: 1.3 micrograms/kg/injection, schedule: Q01DX010 (ip), vehicle: saline): 122 % of control
- T/C (dose: 2.0 micrograms/kg/injection, schedule: Q01DX010 (ip), vehicle: other): 113 % of control
- T/C (dose: 4.0 micrograms/kg/injection, schedule: Q01DX010 (ip), vehicle: carboxymethylcellulose (CMC)): 118 % of control
- T/C (dose: 4.0 micrograms/kg/injection, schedule: Q01DX010 (ip), vehicle: saline): 159 % of control
- T/C (dose: 5.0 micrograms/kg/injection, schedule: Q01DX010 (ip), vehicle: carboxymethylcellulose (CMC)): 175 % of control
- T/C (dose: 5.0 micrograms/kg/injection, schedule: Q01DX010 (ip), vehicle: steriod suspending solution): 150 % of control
- T/C (dose: 6.0 micrograms/kg/injection, schedule: Q01DX009 (ip), vehicle: saline): 155 % of control
- T/C (dose: 8.0 micrograms/kg/injection, schedule: Q01DX010 (ip), vehicle: saline): 163 % of control
- T/C (dose: 10.0 micrograms/kg/injection, schedule: Q01DX010 (ip), vehicle: carboxymethylcellulose (CMC)): 190 % of control
- T/C (dose: 10.0 micrograms/kg/injection, schedule: Q01DX010 (ip), vehicle: steriod suspending solution): 160 % of control
- T/C (dose: 12.0 micrograms/kg/injection, schedule: Q01DX009 (ip), vehicle: saline): 170 % of control
- T/C (dose: 16.0 micrograms/kg/injection, schedule: Q01DX010 (ip), vehicle: saline): 118 % of control
- T/C (dose: 20.0 micrograms/kg/injection, schedule: Q01DX010 (ip), vehicle: saline): 154 % of control
- T/C (dose: 20.0 micrograms/kg/injection, schedule: Q01DX010 (ip), vehicle: steriod suspending solution): 180 % of control
- T/C (dose: 30.0 micrograms/kg/injection, schedule: Q01DX010 (ip), vehicle: saline): 109 % of control
- T/C (dose: 32.0 micrograms/kg/injection, schedule: Q01DX010 (ip), vehicle: other): 177 % of control
- T/C (dose: 60.0 micrograms/kg/injection, schedule: Q01DX010 (ip), vehicle: saline): 86 % of control

SMILES: CCCCCCCCCC(=O)CCCC
- T/C (dose: 100.0 mg/kg/injection, schedule: Q04DX003 (ip), vehicle: saline with Tween-80): 100 % of control
- T/C (dose: 200.0 mg/kg/injection, schedule: Q04DX003 (ip), vehicle: saline with Tween-80): 91 % of control
- T/C (dose: 400.0 mg/kg/injection, schedule: Q04DX003 (ip), vehicle: saline with Tween-80): 108 % of control

SMILES: OCC1(CO)COC(c2ccccc2)OC1
- T/C (dose: 25.0 mg/kg/injection, schedule: Q04DX003 (ip), vehicle: Klucel (hydroxypropylcellulose) (HPC)): 95 % of control
- T/C (dose: 50.0 mg/kg/injection, schedule: Q04DX003 (ip), vehicle: Klucel (hydroxypropylcellulose) (HPC)): 100 % of control
- T/C [1]: 100 % of control

SMILES: Cc1ccc(NCC2(/N=C/c3ccccc3)OC(CO)C(O)C2O)cc1 (centres undefined)
- T/C [1]: 119 % of control
- T/C (dose: 200.0 mg/kg/injection, schedule: Q01DX009 (ip), vehicle: Klucel (hydroxypropylcellulose) (HPC)): 150 % of control
- T/C (dose: 200.0 mg/kg/injection, schedule: Q04DX003 (ip), vehicle: Klucel (hydroxypropylcellulose) (HPC)): 107 % of control
- T/C (dose: 400.0 mg/kg/injection, schedule: Q01DX009 (ip), vehicle: Klucel (hydroxypropylcellulose) (HPC)): 158 % of control
- T/C (dose: 400.0 mg/kg/injection, schedule: Q04DX003 (ip), vehicle: Klucel (hydroxypropylcellulose) (HPC)): 123 % of control

SMILES: O=C(CN1CCCCC1)Nc1ccc(Br)cc1
- T/C (dose: 50.0 mg/kg/injection, schedule: Q01DX009 (ip), vehicle: saline with Tween-80): 96 % of control
- T/C (dose: 100.0 mg/kg/injection, schedule: Q01DX009 (ip), vehicle: saline with Tween-80): 104 % of control
- T/C (dose: 200.0 mg/kg/injection, schedule: Q01DX009 (ip), vehicle: saline with Tween-80): 112 % of control

SMILES: COC1/C=C/O[C@@]2(C)Oc3c(C)c(O)c4c(O)c(cc(O)c4c3C2=O)NC(=O)/C(C)=C\C=C\[C@H](C)C(O)[C@@H](C)[C@@H](O)[C@@H](C)[C@H](OC(C)=O)[C@@H]1C (some centres undefined)
- T/C (dose: 100.0 mg/kg/injection, schedule: Q01DX009 (ip), vehicle: saline): 123 % of control
- T/C (dose: 200.0 mg/kg/injection, schedule: Q01DX009 (ip), vehicle: saline): 114 % of control
- T/C (dose: 400.0 mg/kg/injection, schedule: Q01DX009 (ip), vehicle: saline): 119 % of control
